Like-named read-outs stand apart in the source and are kept apart here.
Key:
[1] = Lethal toxicity in galactosamine-sensitized mice; assay type: in vivo, C57BL mice; details: galactosamine-sensitized mice; intravenous; D-galactosamine/HCl 10 mg/mouse intraperitoneally; observed to seventh day; read-out: LD50 (galactosamine load)
Method: (§1) Lethal toxicity in galactosamine-sensitized mice was evaluated by utilizing the following experimental system [see J. Biochem., 98, 395-406. (1985)].
(§2) To C57BL mice (male, 7-weeks old), 10 mg/mouse of D-galactosamine/HCl was intraperitoneally administered. Immediately after that, the compound of this invention was intravenously administered. After these administrations, the general condition of the mice were observed every one hour for seven hours, and every day from the following day to the seventh day.

[2] = system: TNF; assay: TNF-producing activity; assay type: in vivo, ICR mice; details: 10 μg/mice i.v., serum at 90 minutes, Corynebacterium parvum-primed, L929 cytotoxicity assay
Method: TNF-producing activity was evaluated utilizing the following experimental system.
The first stimulating agent, 5% Corynebacterium parvum suspension (0.2 ml physiological saline solution), was intravenously administered to ICR mice (female, 6-7 week-aged). Nine days later, the second stimulating agent, the compound of the present invention, was intravenously administered to the same mice at 10 μg/mice. In 90 minutes, 0.5-1 ml of blood was taken from the retro orbital plexus. The obtained blood was allowed to clot at room temperature for five to six hours, and centrifuged at 7200×g for five minutes to separate the serum. The obtained serum was incubated at 56° C. for 30 minutes for inactivation before use in the following experiment.
TNF activity in the serum was measured via a cytotoxicity assay employing L929 cells. […] After 48 hours incubation at 37° C., the viable cells were fixed with methanol. These cells were then stained with 0.2% crystal violet, and the dye was extracted with 1% SDS (sodium dodecyl sulphate). Next, the absorbance at 550 nm was measured. Finally, the cytotoxicity ratio (%) was calculated according to the following formula, and the reciprocal of the dilution of the serum showing 50% cytotoxicity was determined for the TNF titer in the serum (U/ml).
[OD550 (medium alone) - OD550 (serum obtained by
administering compounds of the invention)] ×

[3] = system: colony stimulating factor (CSF); assay: Colony stimulating factor (CSF)-inducing activity; assay type: in vivo, C57BL mice; details: 5 μg caudal vein, serum after six hours, colonies after seven days
Method: By utilizing the following experimental protocol, in vivo colony stimulating factor (CSF) inducing activity of the compounds according to the present invention was evaluated [see Immunology, 21, 427-436. (1971)].
5 μg of the present compounds according to the present invention were administered to the caudal vein of C57BL mice (male, 8-10-weeks old). After six hours, the blood was sampled from the plexus venous orbitalis of said mice. This blood was allowed to stand at 4° C. for two hours for sufficient coagulation, and then centrifuged at 1500×g. The resultant supernatant solution was collected for use as a CSF-containing serum sample.
Separately, from the femora of mice which were the same series as the mice used for sampling the serum, the bone marrow cells were sampled. Specifically, both ends of the femora isolated in an aseptic manner were cut, and an injection needle was inserted into one end to aspirate the bone marrow cells into a culture solution (DMEM). The obtained cell suspension was sufficiently stirred, washed with the culture solution several times, and suspended in the culture solution again.
Next, the cell culture prepared as described was adjusted to a final concentration of 10^5 cells/ml by utilizing a medium (DMEM) containing 0.3% agar, 25% horse serum, and 50 μM 2-mercaptoethanol. To this solution, 0.1 ml of said serum sample which had been diluted to 1/3 with said DMEM medium was added, and the obtained solution was transferred to a culture plate of 35 mm diameter. Then, the resultant culture solution was cultured under 7% CO2 at 37° C. for seven days to form colonies. Colonies as containing at least 20 unseparated cells were counted, and the numbers thus obtained were taken as indicating the CSF inducing activity of the compounds according to the present invention.

[4] = system: spleen cells; assay: Mitogen activity (3H-thymidine incorporation in spleen cells); assay type: cell-based, C3H/HeN mice; details: 48 hours culture, given concentration
Method: The mitogen activity of the compounds according to the present invention was evaluated by utilizing the following experimental system [see Eur. J. Immunol., 14, 109-114. (1984)].
The spleens of C3H/HeN mice (males, 6-10-weeks old) were isolated in an aseptic manner. The spleen tissue was loosened in Dulbecco's modified Eagle medium (DMEM) and then subjected to a stainless mesh in order to filter the spleen cells. Next, erythrocytes contained in the collected cells were hemolyzed, and the obtained cells were suspended in RPMI 1640 medium containing 5% FBS for subsequent use.
Evaluation of mitogenic activity of the compounds according to the present invention was conducted by measuring the amount of ^3 H-thymidine incorporated into the cells during culturing of the cells which were treated with the compounds according to the present invention. First, the spleen cells were transferred to a 96-well plate at 5×10^5 cells/well (100 μl). To each well, the compound according to the present invention at a given concentration (100 μl) was added, and the obtained solution in each well was cultured under 5% CO2 at 37° C. for 48 hours. After that, ^3 H-thymidine was added at 1 μCi/well (50 μl), followed by culturing for four hours. The obtained cells were washed with phosphate buffered saline (PBS), and the amount of ^3 H-thymidine incorporated into the cells (the amount of radioactivity) was determined using a liquid scintillation counter. The result was shown by calculating the following Stimulation Index: [formula]

[5] = system: neutrophils; assay: O2^- production stimulating activity in neutrophils; assay type: cell-based, C3H/HeN mice; details: 10 μg/ml, 37° C., 60 minutes, FMLP 0.1 μM; for activation at 10 µg/mL: Mus musculus, Neutrophil, 1 h, read-out: Stimulation (%), O2^- production stimulating activity
Method: O2^- - production stimulating activity in neutrophils was evaluated utilizing the following experimental system [see J. Exp. Med., 160, 1656-1671. (1984)]. To the peritoneal cavity of C3H/HeN mice (male, 8-9 weeks old), physiological saline containing 0.2% (w/v) casein was administered. Three hours later, peritoneal exudate cells (90% or more of which are neutrophils) were collected. These cells (1.7×10^6 cells/ml/tube) were incubated in the presence of the compound (10 μg/ml) according to the present invention at 37° C. for 60 minutes. After addition of 80 μM of cytochrome C and 0.1 μM of formyl-methionyl-leucylphenylalanine (FMLP), the mixture was incubated in the presence of or in the absence of superoxide dismutase (SOD) at 37° C. for 10 minutes. Then, SOD-inhibitable cytochrome C reduction was estimated from the difference between the absorbances at 550 nm and 541.7 nm, and from the molar absorption coefficient (16.5×10^3).O2^- production-stimulating activity in terms of Stimulation % was calculated according to the following formula: [formula]

[6] = system: galactosamine-sensitized mice; assay: Lethal toxicity in galactosamine-sensitized mice; assay type: in vivo, C57BL mice; details: intravenous; D-galactosamine/HCl 10 mg/mouse intraperitoneally; observed to seventh day; 10080 min
Method: as §1, §2

| Structure (SMILES) | LD50 at 168 h [1] [mg/kg] | The Amount of TNF in the Serum ([2]; Experiment 1) [U/ml] | The Amount of TNF in the Serum ([2]; Experiment 2) [U/ml] | The Number of Colony Formed/The number of Bone Marrow Cells (10^5) ([3]; Experiment 1) | The Number of Colony Formed/The number of Bone Marrow Cells (10^5) ([3]; Experiment 2) | Stimulation Index ([4]; Experiment 1) | Stimulation Index ([4]; Experiment 2) | Stimulation (%), O2^- production stimulating activity ([5]; Experiment 2) [%] | activation at 10 µg/mL ([5]; Experiment 1) [%] | activation at 10 µg/mL ([5]; Experiment 2) [%] | LD50 (galactosamine load) [6] [mg/kg] |
| --- | --- | --- | --- | --- | --- | --- | --- | --- | --- | --- | --- |
| CCCCCCCCCCCCCC(=O)O[C@H](CCCCCCCCCCC)CC(=O)O[C@H]1[C@H](OP(=O)(O)O)[C@@H](CO)OC(O)[C@@H]1NC(=O)C[C@H](O)CCCCCCCCCCC (stereo partly drawn) [Control, 2-deoxy-2[(3R)-3-hydroxytetradecanamide]-4-O-phosphono-3-O-[(3R)-3-tetradecanoyloxytetradecanoyl]-D-glucopyranose] | 0.003 | 158000 | 80000 | 89 Colony Formed/10^5 Bone Marrow | 53 Colony Formed/10^5 Bone Marrow | 15.8 | 8.4 | 60 | 60 | – | – |
| CCCCCCCCCCCCCC(=O)O[C@H](CCCCCCCCCCCC)C(=O)O[C@H]1[C@@H]2OP(=O)(O)OC[C@H]2OC[C@@H]1NC(=O)C[C@H](O)CCCCCCCCCCC [Example 1, 1,5-Anhydro-2-deoxy-4,6-O-hydroxyphosphoryl-2-{(3R)-3-hydroxytetradecanamido}-3-O-{(2R)-2-tetradecanoyloxytetradecanoyl}-D-glucitol] | 0.0313 | 133000 | – | 153 Colony Formed/10^5 Bone Marrow | – | 32.1 | – | – | 55 | – | – |
| CCCCCCCCCCCCCCC(OC(=O)CCCCCCCCCCC)C(=O)O[C@H]1[C@@H]2OP(=O)(O)OC[C@H]2OC[C@@H]1NC(=O)C[C@H](O)CCCCCCCCC (stereo partly drawn) [Example 2, 1,5-Anhydro-2-deoxy-3-O-{(2RS)-2-dodecanoyloxyhexadecanoyl}-2-{(3R)-3-hydroxydodecanamido}-4,6-O-hydroxyphosphoryl-D-glucitol] | – | – | 102000 | – | – | – | – | – | – | – | – |
| CCCCCCCCCCCCCCC(CCCCCCCCCCCC)C(=O)O[C@H]1[C@@H]2OP(=O)(O)OC[C@H]2OC[C@@H]1NC(=O)C[C@H](O)CCCCCCCCCCC (stereo partly drawn) [Example 4, 1,5-Anhydro-2-deoxy-3-O-{(2RS)-2-dodecylhexadecanoyl}-4,6-O-hydroxyphosphoryl-2-{(3R)-3-hydroxytetradecanamido}-D-glucitol] | 0.0711 | – | – | – | 66 Colony Formed/10^5 Bone Marrow | – | 20.7 | – | – | 55 | – |
| CCCCCCCCCCCCCC(=O)O[C@H](CCCCCCCCCCC)CC(=O)O[C@@H]1[C@@H](NC(=O)C[C@@H](CCCCCCCCCCC)OC(=O)CCCCCCCCCCC)[C@H](OC[C@H]2O[C@H](OP(=O)(O)O)[C@H](NC(=O)C[C@H](O)CCCCCCCCCCC)[C@@H](OC(=O)C[C@H](O)CCCCCCCCCCC)[C@@H]2O)O[C@H](CO)[C@H]1OP(=O)(O)O [Lipid A] | – | – | – | – | – | – | – | – | – | – | 0.0003 |
